The numbers were not newly measured in patent US6653293B1, “Methods, apparatuses and medicaments for treating body fluid related diseases” (priority 1992, dated 2003), which cites them from elsewhere.

For the series, the system named is infected T-4 lymphocytes. The settings on record: in vitro, HIV-infected T-4 lymphocytes.

Regarding tumor necrosis factor [TNF], the “death of infected cells” value is reported as “subjects the infected cells to death” and the “time to coagulation of DNA of the infected T-4 lymphocytes after administration” value is “about 3 hours”.
